From patent US9375457B2, “Composition comprising Rhizoma coptidis, Cortex phellodendri and Fructus gardeniae and for treating neurodegenerative diseases” (Hong Kong Baptist University, priority 2013, dated 2016)

Legend:
[1] = Baicalein concentration in brain of TgCRND8 mice; assay type: in vivo
[2] = test system: Aβ plaques in TgCRND8 mice; assay: Immunohistochemistry of Aβ plaque burden in TgCRND8 mice; assay type: in vivo; settings: oral, 25 mg/kg per day, 3 months, 4G8 immunostaining, p<0.05
Excerpt: All animal handling experiments were approved by the Hong Kong Baptist University Committee on the Use of Human and Animal Subjects in Teaching and Research (HASC, approval #: 12-13/0030). TgCRND8 mice expressing human APP with Swedish (K670N/M671L) and Indiana (V717F) mutations were used to evaluate the effect of baicalein on Aβ. Heterozygous TgCRND8 mice on a C57BL/6J background were used to breed a colony of experimental animals. […]
Immunohistochemistry and image analysis of Aβ plaques is performed on coronal brain sections from TgCRND8 mice treated with baicalein or tap water as described previously by Durairajan et al. 2012. […] Images are obtained with a Nikon fluorescent inverted microscope with digital Nikon camera and analyzed by Image J software. Aβ plaque burden is calculated as the area occupied by the Aβ plaques as a percentage of total area of the brain sections.

[3] = test system: APP processing (sAPPs, F1-APP, pAPPThr668, CTFs) in brain of TgCRND8 mice; assay: Western blot of APP metabolic products in brain fractions of TgCRND8 mice; assay type: in vivo; settings: oral, 25 mg/kg per day
Excerpt: (§1) All animal handling experiments were approved by the Hong Kong Baptist University Committee on the Use of Human and Animal Subjects in Teaching and Research (HASC, approval #: 12-13/0030). TgCRND8 mice expressing human APP with Swedish (K670N/M671L) and Indiana (V717F) mutations were used to evaluate the effect of baicalein on Aβ. Heterozygous TgCRND8 mice on a C57BL/6J background were used to breed a colony of experimental animals. The TgCRND8 mouse is an early onset model of AD with visible Aβ deposits in the brains of the animals starting from 3 months of age as described in Chishti M A, Yang D S, Janus C, Phinney A L, Home P, Pearson J, Strome R, Zuker N, Loukides J, French J, Turner S, Lozza G, Grilli M, Kunicki S, Morissette C, Paquette J, Gervais F, Bergeron C, Fraser P E, Carlson G A, George-Hyslop P S, Westaway D. (2001) Early-onset amyloid deposition and cognitive deficits in transgenic mice expressing a double mutant form of amyloid precursor protein 695. J Biol Chem 276: 21562-21570. The animals are housed in a controlled environment under a 12/12 hours light/dark cycle. They are allowed free access to food and water. The oral administration of baicalein (25 mg/kg/d) is commenced at 2 months of age and ended at 5 months before being killed. A single dose (25 mg/kg/d) of baicalein is tested in animal study as no difference in baicalein levels in the brain between doses of 25 and 50 mg/kg/d is found in our pilot study. Control mice orally gavaged with tap water only for the same administration period. At the conclusion of the treatment period, mice were deeply anesthetized by chloral hydrate and perfused with phosphate buffered saline (PBS). The brains were then dissected and processed for Aβ immunostaining
To detect differences in the level of APP metabolic products among treatment groups, the levels of Aβ, F1-APP, pAPPThr668, CTFs, sAPPα and sAPPβ-sw are measured after a 3-step sequential extraction using Tris buffered saline (TBS) (pH 7.4), 1% Triton X-100/TBS (TBSX) and formic acid (FA) methods as described in Youmans K L, Leung S, Zhang J, Maus E, Baysac K, Bu G, Vassar R, Yu C, LaDu M J. (2011) Amyloid-β42 alters apolipoprotein E solubility in brains of mice with five familial AD mutations. J Neurosci Methods 196: 51-59. All extraction buffers also contained protease and phosphatase inhibitor cocktail (Roche Diagnostics, Basel, Switzerland). Snap frozen tissue is homogenized in 15 volumes (w/v) of TBS homogenization buffer and centrifuged at 100,000×g for 1 h at 4° C. using a Type 70 Ti rotor in an Optima™ L-80XP Ultracentrifuge (Beckman Coulter, Fla., USA). The TBS-soluble fraction is aliquoted, frozen in liquid nitrogen and stored at −80° C. The pellets are resuspended in 15 volumes of TBSX and kept on ice for 30 minutes, followed by a second centrifugation at 100,000×g for 1 hour at 4° C. The TBSX soluble fraction is aliquoted, frozen and stored as for the TBS fraction. The TBSX-insoluble pellet is resuspended in 2 mL of 70% FA and centrifuged at 100,000×g at 4° C. for 1 hour. The FA extracts are neutralized by the addition of 20 volumes of 1 M Tris pH 11, aliquoted and stored at −80° C. Total protein content in TBS- and TBSX-extracts is determined via BCA assay. Total protein in FA-extracts is determined by Bradford Protein Microassay (Bio-Rad, CA, USA). […]

[4] = test system: intracellular Aβ1-40 and Aβ1-42 in N2a-SwedAPP cells; assay: Sandwich ELISA of intracellular Aβ in N2a-SwedAPP cells; assay type: cell-based, murine; design: key to Aβs (overall influence): ↓ decreased; ↑ increased; ? unchanged
Experimental: N2a-SwedAPP cells were seeded at a density of 4×10^5/mL in DMEM medium in a 6-well plate and cultured for 1 day. After transfer, cells were treated with different doses of RC, CP, FG and RS for 48 hours, then the extracellular media were collected for detection of sAPPα and sAPPβ-sw, and cells were harvested to quantify F1-APP and β-actin by Western blot analysis, as described previously by Durairajan et al. For intracellular APP, APP-CTFs and Aβ preparation, cells were washed with ice-cold PBS twice and solubilized in ice-cold RIPA buffer with protease inhibitor cocktail added. Lysates were collected and centrifuged at 16,000×g for 15 minutes at 4° C. The resulting supernatants were collected, and their protein concentrations were determined with bicinchoninic acid (BCA) protein assay reagent (Thermo Scientific, IL, USA). […] The conditioned media were standardized to total cell lysate protein.
The levels of intracellular Aβ1-40 and Aβ1-42 are quantified by using a sandwich ELISA as previously described by Durairajan et al., 2011 with minor modification. Equal amounts of cell or brain lysates are used for Aβ quantification by sandwich ELISA. The monoclonal antibody 6E10 is used as the capture antibody by adding to ELISA plates (0.2 μg diluted in 0.1 M Na2CO3 (pH 9.6) per well) and incubated overnight at 4° C. The plates are washed with PBS (0.05% Tween 20) and blocked with 4% BlockAce (Serotec, Raleigh, N.C., USA) for 2 hours at room temperature. Equilibrated protein lysates from each treatment (a 100 μL volume is adjusted in all treatment groups by using PBS) are applied in duplicate and incubated at room temperature for 2 hours with constant rotation at 30 rpm. Biotinylated monoclonal anti-Aβ40 5C3 (50 ng per well) and biotinylated monoclonal 8G7 (50 ng per well) antibodies are used for detection of Aβ1-40 and Aβ1-42, respectively, and are diluted in 1% BlockAce and incubated for 2 hours at room temperature. Plates are thoroughly washed with PBS (0.05% Tween 20), and streptavidin conjugated HRP is added for 1 hour at room temperature. Finally the plates are washed four times with PBST before adding the substrate TMB for 30 minutes. Absorbance at 450 nm is measured in duplicate wells after addition of 2 M H2SO4. All ELISA experimental data are from three different days. Synthetic Aβ40 and Aβ42 peptides are used for construction of calibration curves, and Aβ is measured in lysates.

TgCRND8 mice = assay: Tolerability of chronic oral administration in TgCRND8 mice; assay type: in vivo; settings: 25 mg/kg per day, nearly 3 months
Excerpt: as §1, with “A single dose (25 mg/kg/d) of baicalein is tested in animal study as no difference in baicalein levels in the brain between doses of 25 and 50 mg/kg/d is found in our pilot study. Control mice orally gavaged with tap water only for the same administration period. At the conclusion of the treatment period, mice were deeply anesthetized by chloral hydrate and perfused with phosphate buffered saline (PBS). The brains were then dissected and processed for Aβ immunostaining” left out

[5] = rat, in vivo; cited from earlier work

Structure (SMILES): O=c1cc(-c2ccccc2)oc2cc(O)c(O)c(O)c12 [baicalein]
- mean concentration of baicalein in the brain ([1]; TgCRND8 mice, orally administered 25 mg/kg): 120 ± 10 ng/mL
- difference in baicalein levels in the brain between doses ([1]; mouse, in vivo): no difference
- increase of area occupied by Aβ deposits in cortex and hippocampus [2]: 44%
- increase in sAPPα signal intensity in brain ([3]; TBS fraction): 44%
- increase in sAPPβ-sw signal intensity in brain ([3]; TBS fraction): 35%
- increase in level of CTFs in brain ([3]; TBSX fraction): 40%
- increase in level of F1-APP in brain ([3]; TBSX fraction): 30%
- increase in level of pAPP in brain ([3]; TBSX fraction): 41%
- augmentation of intracellular Aβ1-40, fold of basal level ([4]; 12.5 μM, 48 h): 1.23 fold
- augmentation of intracellular Aβ1-42, fold of basal level ([4]; 12.5 μM, 48 h): 1.38 fold
- Aβs (overall influence) ([4]; N2a-SwedAPP cells): ↑
- adverse side effects (TgCRND8 mice): nor did it cause any notable adverse side effects
- change of animal body weight (TgCRND8 mice): did not significantly change
- brain bioavailability of baicalein (greater than berberine) [5]: 1 to 10 µM
